{"source": "patent US8258119B2", "about": "“Anti-cancer drugs and uses relating thereto for metastatic malignant melanoma and other cancers” (Kasina Laila Innova Pharmaceuticals, priority 2008, dated 2012)", "key": {"[1]": {"tested_on": "Human umbilical vein endothelial cells (HUVEC)", "test": "Endothelial cell migration assay", "type": "cell-based", "settings": "18 h", "method": "The methodology of endothelial cell migration assay was essentially the same as described earlier with some modifications (43). FALCON™ Cell Culture inserts (Becton Dickinson, USA) with 8 μm-pores in their PET membrane was coated with 0.1 mg/ml of collagen. Human umbilical vein endothelial cells (HUVEC) were added to the cell culture inserts (Becton Dickinson) at a density of 5×10^4 cells/insert. Cells were allowed to migrate through the insert for 18 h in presence of different concentrations of either DTIC or Compound 6. The control culture containing migration assembly received only 0.1% DMSO. […] The membranes of the inserts were then mounted on glass slides. Cells migrated through the membrane pores were counted in 20 random fields under Nikon Eclipse TS 100 microscope at 20× objective."}, "[2]": {"tested_on": "A375 human melanoma cells", "test": "MTT cell proliferation assay in A375 cells", "type": "cell-based", "settings": "A-375, 72 h, 3 days, read-out: 50% of inhibitory concentration, IC50 in A375 cells", "method": "(§1) MTT [3-(4,5-dimethylthiazol-2-yl)-2,5-diphenyltetrazolium bromide] incorporation based cell proliferation assay was performed using standard procedure with some modifications (38). The cytotoxic efficacy of the test compounds were evaluated in human malignant melanoma A2058 cells by MTT cell proliferation assay kit (Roche Applied Sciences, Germany). The assay was carried out according to the instruction provided by the vendor. Briefly, equal numbers of cells was plated in 96-well flat-bottomed plates in 100 μl of medium and were exposed to either DTIC or its derivative compounds at various concentrations up to 150 μg/ml for a period of three days. Vehicle control culture wells received only a maximum of 0.5% DMSO. […] After complete solubilization of the formazan crystals the absorbance was read at 540 nm in a microplate reader (BioRad, USA). […]\n(§2) The comparative anti-tumor growth potential of DTIC and Compound 6 was further tested in B16F0 mouse melanoma cells and A375 human melanoma cells by using MTT based cell proliferation assay following the methodology described earlier (Example 19). […] After adding the MTT reagent, the cells were solubilized and the intracellular formazan formation was calorimetrically read at 540 nm in a microplate reader (BioRad, USA). […]"}, "[3]": {"tested_on": "B16F0 mouse melanoma cells", "test": "MTT cell proliferation assay in B16F0 cells", "type": "cell-based", "settings": "B16F0, 72 h, 3 days, read-out: 50% of inhibitory concentration, IC50 in B16 F0 cells", "method": "as §1, §2"}, "[4]": {"tested_on": "B16 F0 mouse melanoma cells", "test": "Cell cycle analysis by flow cytometry", "type": "cell-based", "settings": "24 h, propidium iodide FACS", "method": "B16 F0 Cells were treated with the indicated concentrations of either vehicle (0.1% DMSO) or DTIC or Compound 6 for 24 h at different concentrations as indicated. The propidium iodide stained cells were analyzed for the distribution of cell cycle by FACS calibur, and the percentage of distribution at different phases of cell cycle was determined using ModFIT software. Data are shown as one representative of at least three independent experiments.\nCell cycle analysis of Compound 6 and DTIC treated B16F0 cells were analyzed by flow cytometry as described earlier with some modifications (42). Briefly, B16F0 cells were cultivated in DMEM containing 10% fetal bovine serum (FBS) in presence of 4.5 g/l D-glucose. The sub confluent cells were treated with either DTIC or Compound 6 and incubated for 24 h. Cells were harvested and prepared single cell suspension in buffer (PBS+2% FBS). The cells were washed twice with cold PBS and then fixed with cold 70% ethanol for 30 min. Ethanol was removed by centrifugation and the cells were suspended and the cell count was adjusted to 10^6 cells per ml. The cells were washed two times with PBS and then the cells were stained with propidium iodide for 30 min at 37° C. in presence of RNase. Finally, the cells were analyzed on FACS Calibur flow cytometry (BD Biosciences, USA). […]"}, "[5]": {"tested_on": "metastatic malignant melanoma", "settings": "clinical setting; cited from earlier work"}, "[6]": {"tested_on": "normal human skin epithelial HS.531.sk cells", "test": "LDH leakage assay on normal skin cells (tumor selectivity)", "type": "cell-based", "method": "From the data obtained from the MTT assay (Table J), compound 1, compound 6 and compound 13 have been selected and their cytotoxicity potential has been further validated in LDH leakage assay. […] Cytotoxicity potential of DTIC and its derivative compounds were evaluated by measuring the leaked lactate dehydrogenase (LDH) into the culture supernatant (LDH Cytotoxicity Detection Roche Applied Sciences, Germany). The leaked LDH is directly proportional to the cell damage done by the cytotoxic compounds. In brief, cells were treated with test compounds at various concentrations and incubated for 48 h. Vehicle control culture wells received only a maximum of 0.5% DMSO. The cell free culture supernatants were mixed with catalyst and dye solution and allowed to incubate for 15 min at room temperature. Finally, the reaction was stopped and the optical density was measured at 492 nm in a microplate reader (BioRad, USA). The results (mean OD±SD) obtained from quadruplicate wells were used in calculation to determine the cytotoxicity potential (50% of inhibitory concentration, IC50) of the test compounds. A plot of loss of cell viability as indicated by the leakage of LDH versus drug concentration is depicted in FIG. 1.\nNext, to check whether the DTIC derivative compounds can selectively kill the melanoma cells without or minimally affecting the normal cells, we assessed the effect of the test compounds on normal human skin epithelial HS.531.sk cells. […] Whereas, 120 μg/ml of DTIC, compound 1, […] caused 5.8%, 4.2%, 2.4%, and 2.4% reduction in normal cell viability, respectively."}}}
{"compound": "CN(C)/N=N/c1ccsc1C(=O)O", "note": "[Compound 6, 3-[(dimethylamino)diazenyl]thiophene-2-carboxylic acid]", "values": [{"measurement": "endothelial cell migration", "setting": "[1]", "result": "significant inhibition of migration"}, {"measurement": "IC50", "setting": "[2]", "result": 46.5, "unit": "µg/mL"}, {"measurement": "IC50", "setting": "[3]", "result": 57.6, "unit": "µg/mL"}, {"measurement": "effect on cell cycle distribution", "setting": "[4]", "result": "induction of cell cycle arrest in G2/M phase"}]}
{"compound": "CN(C)/N=N/c1[nH]cnc1C(N)=O", "note": "[DTIC, 5-(3,3-dimethyl-1-trizeno)-imidazole-4-carboxamide, reference compound]", "values": [{"measurement": "Complete Response (CR) rate", "setting": "[5]", "result": "below 10%"}, {"measurement": "reduction in normal cell viability", "setting": "[6]; 120 μg/ml", "result": 5.8, "unit": "%"}, {"measurement": "effect on normal skin cell growth", "setting": "[6]; up to 100 μg/ml", "result": "do not affect the normal cell skin cell growth"}, {"measurement": "IC50", "setting": "[3]", "result": 360, "unit": "µg/mL"}]}
